Source: PMC8582824, “Targeting DDX3X Helicase Activity with BA103 Shows Promising Therapeutic Effects in Preclinical Glioblastoma Models” (Cancers, 2021)
Blank lines part the entries; values can stand above or below the compound they belong to.

What was measured:
[1] = tested on: panel of cancer cell lines (Du-145, PC3, HepG2, Huh-7, HN6, U87 and U231); experiment: Cytotoxicity screen on panel of cancer cell lines; type: cell-based; details: 72 h of treatment
Procedure: For CellTiter 96® Aqueous One Solution Cell Proliferation Assay (MTS) (Promega, Madison, WI, USA), cells were seeded at 5 × 10^3 per well in 96-well plates in quadruplicate together a control with no cells to evaluate the background. After 24 h, the culture medium was removed, and fresh medium containing increasing concentrations of chemical compounds was added to cells. The fixed final concentrations were 0.1 μM, 1 μM, 10 μM, and 100 μM. DMSO was the vehicle used for dilution of the compounds, and its final concentration on cells was less than 0.2%. Medium-only containing wells were included as controls. […] After 3 h at 37 °C in a humidified, 5% CO2 atmosphere, the absorbance at 492 nm was recorded using an EZREAD400 (Biochrom, Cambridge, United Kingdom) plate reader. The average 490 nm absorbance from the “no cell” control wells was subtracted from all other values to yield background-corrected absorbance. Dose–response curves and CC50 values have been calculated by plotting the absorbance data as a function of inhibitor concentrations and fitting the data by least-squares nonlinear regression, according to the method of Marquardt–Levenberg, with the computer program GraphPad Prism 6.0.
Cells were incubated with a scalar concentration of DDX3X inhibitors, and after 72 h of treatment, cell viability was assessed by cytotoxicity assay. […]

U251 cells = experiment: MTS cytotoxicity assay, U251 cells; type: cell-based; details: 72 h
Procedure: (§1) For CellTiter 96® Aqueous One Solution Cell Proliferation Assay (MTS) (Promega, Madison, WI, USA), cells were seeded at 5 × 10^3 per well in 96-well plates in quadruplicate together a control with no cells to evaluate the background. After 24 h, the culture medium was removed, and fresh medium containing increasing concentrations of chemical compounds was added to cells. […] DMSO was the vehicle used for dilution of the compounds, and its final concentration on cells was less than 0.2%. Medium-only containing wells were included as controls. Cells were incubated with compounds at different concentrations for 72 h, then, 20 µL of CellTiter 96® AQueous One Solution Reagent was added into each well. After 3 h at 37 °C in a humidified, 5% CO2 atmosphere, the absorbance at 492 nm was recorded using an EZREAD400 (Biochrom, Cambridge, United Kingdom) plate reader. The average 490 nm absorbance from the “no cell” control wells was subtracted from all other values to yield background-corrected absorbance. Dose–response curves and CC50 values have been calculated by plotting the absorbance data as a function of inhibitor concentrations and fitting the data by least-squares nonlinear regression, according to the method of Marquardt–Levenberg, with the computer program GraphPad Prism 6.0.
(§2) Cells were incubated with a scalar concentration of DDX3X inhibitors, and after 72 h of treatment, cell viability was assessed by cytotoxicity assay. […] Compounds 4, 6, and BA103 were also evaluated against BJ primary fibroblasts; compound 4 has a cytotoxicity value of 84.7 μM; on the contrary, compounds 6 and BA103 were not toxic up to 200 μM concentration. This further excluded a possible nonspecific cytotoxic effect. […] Due to its interesting profile, compound BA103 was further tested against additional pulmonary (A549), breast (MDA-MB-231), colorectal (HCT-116), osteosarcoma (U2OS), rhabdomyosarcoma (RD18), GBM (DBTRG, U87, and U251) and medulloblastoma (DAOY) cancer cell lines.
(§3) Figure 5 Cytotoxicity of selected compounds. Compounds were assayed on DU-145, PC3, HepG2, Huh-7, HN6, U251, and U87 cell lines. The concentration of the compound, which reduced the number of viable cells by 50% (CC50), was determined by dose–response curve, and the mean CC50 value for each cell line was calculated by triplicate assays (raw data from U87 and U251 cells with dose–response curves used for the calculation of CC50 in Table S1 and Figure S2).
(§4) Table S1: Raw data of optical absorbance at 490 nm from MTS assay in U87 and U251 cells. Tables contain
(§5) means with SD of at least 5 different values that were used for preparation of figure 5.

DDX3X helicase activity = target: T1, DDX3X helicase activity (Homo sapiens, UniProt O00571); experiment: FRET-based DDX3X helicase assay; type: biochemical; details: for IC50: FRET helicase assay, recombinant DDX3X, read-out: IC50 ± SD, DDX3X anti-enzymatic (helicase) activity
T1 construct: Recombinant his-tagged human full length DDX3X; His tag; made in house; host or cells: ShuffleT7 E. coli
T1 sequence (O00571 whole entry): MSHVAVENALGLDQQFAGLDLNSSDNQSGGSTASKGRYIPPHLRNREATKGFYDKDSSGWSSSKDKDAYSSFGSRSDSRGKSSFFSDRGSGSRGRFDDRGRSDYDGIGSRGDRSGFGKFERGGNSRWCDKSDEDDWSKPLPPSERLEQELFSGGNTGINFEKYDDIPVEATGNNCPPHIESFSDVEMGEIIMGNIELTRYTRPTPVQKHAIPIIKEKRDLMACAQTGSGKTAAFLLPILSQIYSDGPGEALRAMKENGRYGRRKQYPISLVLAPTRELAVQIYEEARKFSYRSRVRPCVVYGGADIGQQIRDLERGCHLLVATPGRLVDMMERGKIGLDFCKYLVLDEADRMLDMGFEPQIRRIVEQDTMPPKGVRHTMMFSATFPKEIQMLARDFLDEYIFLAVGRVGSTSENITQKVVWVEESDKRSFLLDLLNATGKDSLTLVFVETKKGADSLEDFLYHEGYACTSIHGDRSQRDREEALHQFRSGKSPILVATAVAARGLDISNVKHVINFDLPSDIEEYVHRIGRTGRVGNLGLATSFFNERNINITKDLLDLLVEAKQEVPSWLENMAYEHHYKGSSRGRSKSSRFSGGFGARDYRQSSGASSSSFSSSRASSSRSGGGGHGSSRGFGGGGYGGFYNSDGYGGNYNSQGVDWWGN
Procedure: Recombinant his-tagged human full length DDX3X cloned the E. coli expression vector pET-30a(+). ShuffleT7 E. coli cells were transformed with the plasmid and grown at 37 °C up to OD600 = 0.7. DDX3X expression was induced with 0.5 mM IPTG at 15 °C O/N. Cells were harvested by centrifugation, lysed, and the crude extract was centrifuged at 100,000 g for 60 min at 4 °C in a Beckman centrifuge before being loaded onto a FPLC Ni-NTA column (GE Healthcare, Chicago, IL, USA). The column was equilibrated in Buffer A (50 mM Tris-HCl pH 8.0, 250 mM NaCl, 25 mM Imidazole and 20% glycerol). After extensive washing in Buffer A, the column was eluted with a linear gradient in Buffer A from 25 to 250 mM Imidazole. Proteins in the eluted fractions were visualized on SDS-PAGE and tested for the presence of DDX3X by Western blot with anti-DDX3X A300-475A (Bethyl Laboratories, Montgomery, TX, USA) at 1:4000 dilution in 5% milk. Fractions containing the purest DDX3X protein were pooled and stored at −80 °C.
The dsRNA substrate for the helicase assay was prepared by hybridizing two ss RNA oligonucleotides with the following sequences: • Fluo-FAM 5′ […] 3′ • Qu-BHQ1 5′ […] 3′ • DNA capture 5′ […] 3′.
The sequence in Fluo-FAM complementary to Qu-BHQ1 is underlined. Fluo-FAM carries a 6-carboxyfluorescein fluorophore at its 3′ end, while Qu-BHQ1 carries a Black Hole quencher group at its 5′ end. The DNA capture oligonucleotide is complementary to the Qu-BHQ1 oligonucleotide, but it bears no modifications. A helicase assay using the dsRNA substrate was performed in 20 mM TrisHCl (pH 8), 70 mM KCl, 2 mM MgCl2, 2 mM dithiothreititol, 12 units RNasin (Promega), 2 mM ATP, 50 nM dsRNA, and 100 nM capture strand in 20 μL of reaction volume. The unwinding reaction was started by adding 60 pmols of DDX3X recombinant protein and carried out at 37 °C for 40 min using a LightCycler 480 (Roche, Basel, Switzerland). The fluorescence intensity was recorded every 30 s. Values of fluorescence signal in the presence or in the absence of inhibitor molecules were analyzed by linear interpolation, and the corresponding slope values were used to determine the apparent unwinding rate.
The IC50 values have been calculated from dose–response curves. Data (in triplicate) were plotted and analyzed by least-squares nonlinear regression, according to the method of Marquardt–Levenberg, with the computer program GraphPad Prism 6.0. Data were fitted to the following equation:Eobs = Emax/(1 + (IC50/[I])^n)(1) where E(obs) is the observed enzymatic activity in the presence of each inhibitor dose [I]; E(max) is the maximal enzymatic activity in the absence of the inhibitor; and n is an exponential term to take into account sigmoidal dose–response curves.
All the compounds were tested for their ability to inhibit the helicase activity of DDX3X using a fluorescence resonance energy transfer (FRET)-based assay, as previously described. Values of fluorescence signal in the presence or in the absence of inhibitor molecules were analyzed by linear interpolation (for details, see Methods 2.3.2).

U87 cells = experiment: MTS cytotoxicity assay, U87 cells; type: cell-based; details: 72 h
Procedure: as §1, §2, §3, §4, §5

Compound: CCCCc1cc(-c2ccc(NC(=O)Nc3ccccc3C(F)(F)F)cc2)no1 [Compound 2, 1-(4-(5-Butylisoxazol-3-yl)phenyl)-3-(2-(trifluoromethyl)phenyl)urea]
solubility in assay medium (DDX3X helicase activity; during the enzymatic assay): precipitated from medium

Compound: 1-(4-(4-Isopentyl-1H-1,2,3-triazol-1-yl)phenyl)-3-(4-methylpyridin-3-yl)urea [Compound 13]
IC50 (DDX3X helicase activity): 1500 ± 300 nM

Compound: 1-(4-(4-Butyl-1H-1,2,3-triazol-1-yl)phenyl)-3-(4-methylpyridin-3-yl)urea [Compound 14]
IC50 (DDX3X helicase activity): 2000 ± 300 nM

Second part, led by results:

IC50 (DDX3X helicase activity): 50000 ± 7000 nM
Compound: CCCCc1nnc(-c2ccc(NC(=O)Nc3ccccc3C(F)(F)F)cc2)s1 [Compound 8, 1-(4-(5-Butyl-1,3,4-thiadiazol-2-yl)phenyl)-3-(2-(trifluoromethyl)phenyl)urea]
growth inhibition in all the cell lines tested [1]: poorly effective against all the cell lines tested
mean absorbance at 490 nm (MTS) (U251 cells; U251, 0,01 uM): 2,363
mean absorbance at 490 nm (MTS) (U251 cells; U251, 0,1 uM): 2,282
mean absorbance at 490 nm (MTS) (U251 cells; U251, 1 uM): 2,177
mean absorbance at 490 nm (MTS) (U251 cells; U251, 10 uM): 1,806
mean absorbance at 490 nm (MTS) (U251 cells; U251, 100 uM): 0,786
mean absorbance at 490 nm (MTS) (U87 cells; U87, 0,01 uM): 2,267
mean absorbance at 490 nm (MTS) (U87 cells; U87, 0,1 uM): 1,994
mean absorbance at 490 nm (MTS) (U87 cells; U87, 1 uM): 1,965
mean absorbance at 490 nm (MTS) (U87 cells; U87, 10 uM): 1,945
mean absorbance at 490 nm (MTS) (U87 cells; U87, 100 uM): 1,054

times less active than hit compound 1 (loss of activity) (DDX3X helicase activity; DDX3X helicase inhibition relative to compound 1): 16 times
Compound: CCCCn1nnc(-c2ccc(NC(=O)Nc3ccccc3C)cc2)n1 [Compound 5, 1-(4-(2-Butyl-2H-tetrazol-5-yl)phenyl)-3-(o-tolyl)urea]

IC50 (DDX3X helicase activity): 1100 ± 200 nM
Compound: CC(C)CCc1cn(-c2ccc(NC(=O)Nc3ccccc3C(F)(F)F)cn2)nn1 [Compound 9, 1-(6-(4-Isopentyl-1H-1,2,3-triazol-1-yl)pyridin-3-yl)-3-(2-(trifluoromethyl)phenyl)urea]
